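Dose response: 5 concentrations. Exposure: 48 h. Format: 96-well plates. Endpoint: linear interpolation; highest concentration if not reached. GI50 is the concentration that inhibits growth by half.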 Activity calls are given as the source filed them. Rule as the data show it: active = GI50 up to about 1.1 µM and inactive = higher.

Test systems include CAKI-1; CCRF-CEM; HCT-15; K562; M14; MOLT-4; NCI-H226; NCI-H460; OVCAR-4; OVCAR-8; RXF 393; SF-539; SK-MEL-2; SK-MEL-5; SK-OV-3; SR; UACC-257; UO-31.
Assay in all cases: NCI-60 cell line screen, 48 h

Take `CCc1cccc(=O)c([O-])c1.CCc1cccc(=O)c([O-])c1.[Bi+3].[Cl-]`: the GI50 in the experiment with CAKI-1 is 2.43 µM (inactive); in the experiment with CCRF-CEM it was 1.91 µM (inactive); in the experiment on HCT-15 it was 3.66 µM; in the experiment on K562 it was 2.81 µM (inactive); in the experiment on M14, 8.38 µM (inactive); with MOLT-4, 2.22 µM (inactive). The GI50 was 23.2 µM (inactive) with NCI-H226; 6.49 µM (inactive) with NCI-H460; 13.6 µM (inactive) with OVCAR-4; 2.96 µM (inactive) in the experiment on OVCAR-8; 18.2 µM (inactive) in the experiment on RXF 393; 9.84 µM (inactive) in the experiment with SF-539. The GI50 in the experiment on SK-MEL-2 is 12.7 µM (inactive); in the experiment with SK-MEL-5, 13.1 µM (inactive); with SK-OV-3, 21.4 µM (inactive); with SR it was 3.71 µM (inactive); with UACC-257, 6.58 µM (inactive); with UO-31, 10 µM (inactive).
Take `C=CCN(CC=C)CC(C(C)=O)C(c1ccccc1)c1c(O)c2ccccc2oc1=O` (centres undefined): the GI50 in the experiment on CAKI-1 is > 100 µM (inactive); in the experiment on CCRF-CEM, > 100 µM (inactive); in the experiment with HCT-15 it was > 100 µM; in the experiment on K562, > 100 µM (inactive); in the experiment with M14 it was > 100 µM (inactive); with MOLT-4, > 100 µM (inactive). For the same molecule, the GI50 with NCI-H226 was 45.7 µM (inactive); in the experiment on OVCAR-4, > 100 µM (inactive); in the experiment on OVCAR-8 it was > 100 µM (inactive); in the experiment with RXF 393 it was > 100 µM (inactive); in the experiment with SF-539 it was > 100 µM (inactive); in the experiment on SK-MEL-2, > 100 µM (inactive). The GI50 is > 100 µM (inactive) in the experiment with SK-MEL-5; > 100 µM (inactive) in the experiment on SK-OV-3; > 100 µM (inactive) in the experiment on SR; > 100 µM (inactive) in the experiment on UACC-257; 18.2 µM (inactive) with UO-31.
As for `Nn1c(=O)n(Cc2ccccc2)n(-c2ccccc2)c1=O`, the GI50 in the experiment on CAKI-1, in the experiment with CCRF-CEM, in the experiment with K562, in the experiment with M14, in the experiment with MOLT-4 and in the experiment on NCI-H226 was > 100 µM (inactive) throughout. Moreover, the GI50 with NCI-H460, in the experiment on OVCAR-4, in the experiment on OVCAR-8, in the experiment with RXF 393, in the experiment with SF-539 and in the experiment on SK-MEL-2 was > 100 µM (inactive) each time. Moreover, the GI50 in the experiment on SK-MEL-5, in the experiment on SK-OV-3, in the experiment with SR, in the experiment on UACC-257 and with UO-31 was > 100 µM (inactive) throughout.
As to `O=c1c2c([nH]c3cc4c(cc13)OCO4)-c1ccccc1C2`, the GI50 in the experiment with CAKI-1 is 39 µM (inactive); in the experiment with CCRF-CEM, 17.7 µM (inactive); in the experiment on HCT-15, 19.3 µM; in the experiment on K562 it was 27.2 µM (inactive); in the experiment with M14, 20.6 µM (inactive); in the experiment with MOLT-4, 24.7 µM (inactive). In addition, the GI50 in the experiment on NCI-H226 is 27.2 µM (inactive); with NCI-H460, 22.3 µM (inactive); in the experiment on OVCAR-4, 33.3 µM (inactive); with OVCAR-8, 29.8 µM (inactive); in the experiment on RXF 393, 16.4 µM (inactive); with SF-539, 18.1 µM (inactive). Further, the GI50 in the experiment on SK-MEL-2 was 13.5 µM (inactive); in the experiment with SK-MEL-5, 16 µM (inactive); in the experiment with SK-OV-3, 31.3 µM (inactive); in the experiment with SR it was 18.1 µM (inactive); in the experiment with UO-31 it was 24.8 µM (inactive).
